Data reported in patent publication US20240252673A1, “ANTI-TISSUE FACTOR ANTIBODY-DRUG CONJUGATES AND THEIR USE IN THE TREATMENT OF CANCER” (priority 2017, published 2024).

How the values were obtained:
Type in all cases: in vivo, human
[1] = tested on: subjects with locally advanced and/or metastatic cancer of various types; test: Phase I/II dose-escalation study: safety and tolerability, adverse events (CTCAE v4.03) occurring up to 30 days after treatment
Method: A first-in-human phase I/II dose-escalating study following a 3+3 dose-escalation design was conducted in order to test the safety of tisotumab vedotin in 27 subjects with locally advanced and/or metastatic cancer of various types including cervical cancer (FIG. 2). Tisotumab vedotin was administered by intravenous infusion at doses ranging from 0.3 mg/kg to 2.2 mg/kg on day 1 of a 21-day cycle for four cycles (i.e., each treatment cycle was 3 weeks). Patients with stable disease (SD) or better at the end of four cycles had the option to continue treatment with tisotumab vedotin for eight additional cycles (FIG. 2). Tumor evaluations were performed by CT scans every six weeks. In order to qualify for SD, results of the CT scan scheduled for week six needed to be SD or better. Two CT scans were performed outside the per-protocol defined window.
Lyophilized vials containing 40 mg of tisotumab vedotin were stored in a refrigerator at 2° C. to 8° C. Tisotumab vedotin was reconstituted in 4 ml of water leading to a reconstituted solution comprising 10 mg/mL tisotumab vedotin, 30 mM histidine, 88 mM sucrose, and 165 mM D-mannitol. […] The reconstituted tisotumab vedotin was diluted into a 0.9% NaCl 100 mL infusion bag according to the dose calculated for the patient. Intravenous infusion was completed within 24 hours after the tisotumab vedotin vial had been reconstituted. A 0.2 μm in-line filter was used for the intravenous infusion. The entire 100 mL volume from the prepared infusion bag was administered. No dead volume was provided.
A primary objective of the study was to assess the safety and tolerability in a mixed population of patients with specified solid tumors. Adverse event (AE) severity was graded according to Common Terminology Criteria for Adverse Events (CTCAE) version 4.03. Secondary objectives of the study included determining the pharmacokinetic (PK) profile of tisotumab vedotin and preliminary evaluation of anti-tumor activity as assessed according to Response Evaluation Criteria in Solid Tumors [RECIST] version 1.1. Dose-limiting toxicities (DLTs) were determined during the first cycle and were defined as grade≥3 events possibly related to tisotumab vedotin. […] Tumor biopsies were required at baseline for TF expression which was assessed by immunohistochemistry utilizing tisotumab. TF staining intensity was determined using the H-scoring system.
Inclusion criteria for eligible subjects included: patients with relapsed, advanced, and/or metastatic cancer who have failed available standard therapy; and measurable disease.
Exclusion criteria included known past or current coagulation defects; ongoing major bleeding; and presence of CTCAE grade≥2 peripheral neuropathy.

[2] = tested on: relapsed, recurrent and/or metastatic cervical cancer; test: Phase IIa single arm trial: anti-tumor activity per RECIST v1.1; conditions: 2.0 mg/kg q3w
Method: A Phase IIa single arm, multicenter trial investigated the efficacy, safety and tolerability of 2.0 mg/kg tisotumab vedotin in patients with relapsed, recurrent and/or metastatic cervical cancer. A total of 34 patients (n=34) were enrolled and received at least 1 dose of tisotumab vedotin. Each eligible patient was assigned to receive an intravenous (IV) infusion dose of tisotumab vedotin at a concentration of 2.0 mg/kg on day 1 of a 21-day cycle (i.e., each treatment cycle was 3 weeks (q3w)).
A primary objective of the study was to assess safety and tolerability of tisotumab vedotin. Adverse event (AE) severity was graded according to CTCAE version 4.03. A secondary objective was preliminary evaluation of anti-tumor activity durability as assessed according to RECIST version 1.1. Tumor evaluations were performed by CT scans every six weeks.

[3] = tested on: relapsed, recurrent and/or metastatic cervical cancer; test: as above

Substance: tisotumab vedotin
- AE leading to discontinuation ([1]; 0.3 mg/kg (n = 3)): 0 n
- AE leading to discontinuation ([1]; 0.6 mg/kg (n = 3)): 0 n
- AE leading to discontinuation ([1]; 0.9 mg/kg (n = 3)): 0 n
- AE with outcome of death ([1]; 0.9 mg/kg (n = 3)): 0 n
- Serious AE ([1]; 0.9 mg/kg (n = 3)): 0 n
- AE leading to discontinuation ([1]; 1.2 mg/kg (n = 3)): 0 n
- AE with outcome of death ([1]; 1.2 mg/kg (n = 3)): 0 n
- AE leading to discontinuation ([1]; 1.5 mg/kg (n = 3)): 0 n
- AE with outcome of death ([1]; 1.5 mg/kg (n = 3)): 0 n
- AE with outcome of death ([1]; 1.8 mg/kg (n = 3)): 0 n
- AE leading to discontinuation ([1]; 2.0 mg/kg (n = 3)): 0 n
- AE with outcome of death ([1]; 2.0 mg/kg (n = 3)): 0 n
- AE with outcome of death ([1]; 2.2 mg/kg (n = 6)): 0 n
- DLTs (diabetes mellitus type 2, mucositis, neutropenic fever, all grade 3) ([1]; 2.2 mg/kg dose cohort, in three patients, first cycle): Three
- Maximum tolerated dose (MTD) ([1]; IV, day 1 of 21-day cycle): 2.0 mg/kg
- tolerability ([1]; Patient 2, cervical cancer, 1.2 mg/kg): well tolerated and no severe AEs were reported
- discontinued due to AE: grade 1 pneumonitis ([1]; all 27 patients): 1 n
- discontinued due to AE: grade 2 peripheral swelling and grade 3 pain in extremity ([1]; all 27 patients): one
- discontinued due to AE: grade 3 Guillain-Barre syndrome ([1]; all 27 patients): 1 n
- discontinued due to AE: grade 3 abdominal pain ([1]; all 27 patients): 2 n
- discontinued due to AE: grade 3 diabetes mellitus ([1]; all 27 patients): 1 n
- discontinued due to AE: grade 3 fatigue ([1]; all 27 patients): 1 n
- grade 4 events ([1]; all 27 patients): no grade 4 events
- grade≥3 treatment-related AE: abdominal pain ([1]; all 27 patients): 3 n
- grade≥3 treatment-related AE: anemia ([1]; all 27 patients): 4 n
- grade≥3 treatment-related AE: fatigue ([1]; all 27 patients): 4 n
- grade≥3 treatment-related AE: hyponatraemia ([1]; all 27 patients): 3 n
- patients experienced grade≥3 treatment-related AEs ([1]; all 27 patients): 19 patients
- treatment-related AE: anaemia ([1]; all 27 patients): 41%
- treatment-related AE: epitaxis ([1]; all 27 patients): 48%
- treatment-related AE: fatigue ([1]; all 27 patients): 48%
- changes in coagulation parameters ([1]; all doses): No significant changes
- patients withdrew from treatment due to AEs ([1]; all doses, 27 patients): 15%
- patients withdrew from treatment due to death ([1]; all doses, 27 patients): 4%
- patients withdrew from treatment due to dose-limiting toxicities (DLTs) ([1]; all doses, 27 patients): 4%
- mean prothrombin time ([1]; by the end of the study (n=17), baseline 11.5 seconds (n=18)): 11.7 s
- mean activated partial thromboplastin time ([1]; by the end of the study (n=23), baseline 28.2 seconds (n=25)): 27.1 s
- patients withdrew from treatment due to disease progression ([2]; 34 patients): 16 n
- Median DoR for confirmed and unconfirmed responses ([2]; N = 34): ^eMedian DoR of 5.4 months for confirmed and unconfirmed responses.
- Median PFS ([2]; N = 34): 6.4 months
- confirmed PR ([2]; N = 34): 8
- unconfirmed PR ([2]; N = 34, 1 of which is still ongoing): 3
- Objective response rate (ORR) ([2]; N = 34, 95% Confidence interval 17%-50%): 32 % of total patients
- DCR (CR + PR + SD) ([2]; N = 34, clinical benefit after 12 weeks, 95% Confidence interval 35%-65%): 50 % of total patients
- efficacy, overall conclusion ([2]; cervical cancer cohort): robust efficacy
- Median DoR ([3]; 2.0 mg/kg q3w, N = 34): 8.3 months
- Objective response rate (ORR) ([3]; 2.0 mg/kg q3w, N = 34): 11 n
- DCR (CR + PR + SD) ([3]; 2.0 mg/kg q3w, N = 34, clinical benefit after 12 weeks): 17 n
- ORR, combined unconfirmed + confirmed ([3]; expanded cohort, all efficacy-evaluable patients, N 51): 16 N
- ORR, combined unconfirmed + confirmed ([3]; expanded cohort, all efficacy-evaluable patients, N 51, 95% CI 19-46): 31%
- ORR, combined unconfirmed + confirmed ([3]; histology Adenocarcinoma, N 18): 4 N
- ORR, combined unconfirmed + confirmed ([3]; histology Adenocarcinoma, N 18, 95% CI 6-48): 22%
- ORR, combined unconfirmed + confirmed ([3]; histology Adenosquamous, N 4): 2 N
- ORR, combined unconfirmed + confirmed ([3]; histology Adenosquamous, N 4, 95% CI 7-93): 50%
- ORR, combined unconfirmed + confirmed ([3]; histology Other, N 2): 1 N
- ORR, combined unconfirmed + confirmed ([3]; histology Other, N 2, 95% CI 1-99): 50%
- ORR, combined unconfirmed + confirmed ([3]; histology Squamous, N 27): 9 N
- ORR, combined unconfirmed + confirmed ([3]; histology Squamous, N 27, 95% CI 17-54): 33%
- ORR, combined unconfirmed + confirmed ([3]; prior GOG 240 regimen No, N 14): 4 N
- ORR, combined unconfirmed + confirmed ([3]; prior GOG 240 regimen No, N 14, 95% CI 8-58): 29%
- ORR, combined unconfirmed + confirmed ([3]; prior GOG 240 regimen Yes, N 37): 12 N
- ORR, combined unconfirmed + confirmed ([3]; prior GOG 240 regimen Yes, N 37, 95% CI 18-50): 32%
- ORR, combined unconfirmed + confirmed ([3]; prior bevacizumab No, N 11): 4 N
- ORR, combined unconfirmed + confirmed ([3]; prior bevacizumab No, N 11, 95% CI 11-69): 36%
- ORR, combined unconfirmed + confirmed ([3]; prior bevacizumab Yes, N 40): 12 N
- ORR, combined unconfirmed + confirmed ([3]; prior bevacizumab Yes, N 40, 95% CI 17-47): 30%
- ORR, combined unconfirmed + confirmed ([3]; prior lines of systemic therapy 1, N 23): 8 N
- ORR, combined unconfirmed + confirmed ([3]; prior lines of systemic therapy 1, N 23, 95% CI 16-57): 35%
- ORR, combined unconfirmed + confirmed ([3]; prior lines of systemic therapy 2, N 17): 6 N
- ORR, combined unconfirmed + confirmed ([3]; prior lines of systemic therapy 2, N 17, 95% CI 14-62): 35%
- ORR, combined unconfirmed + confirmed ([3]; prior lines of systemic therapy 3-4, N 11): 2 N
- ORR, combined unconfirmed + confirmed ([3]; prior lines of systemic therapy 3-4, N 11, 95% CI 2-52): 18%
- ORR, combined unconfirmed + confirmed ([3]; prior taxane No, N 3): 1 N
- ORR, combined unconfirmed + confirmed ([3]; prior taxane No, N 3, 95% CI 1-91): 33%
- ORR, combined unconfirmed + confirmed ([3]; prior taxane Yes, N 48): 15 N
- ORR, combined unconfirmed + confirmed ([3]; prior taxane Yes, N 48, 95% CI 19-46): 31%
